In patent publication US12091425B2 (AMGEN INC., priority 2016, dated 2024) one finds IC50 data, which are given here for 20 compounds.

Experiment [1] has as its target T1, Mcl-1/Bim interaction, recombinant human Mcl-1 (171-327) (Homo sapiens, UniProt Q07820).
T1 construct: made in house
The experiment in a line: Cell free Mcl-1: Bim Affinity Assay (Mcl-1 HTRF). It counts as binding. Put shortly: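 Displacement of biotinylated Bim 51-76 peptide is followed by TR-FRET. Incubation runs overnight. Duplicate points are fitted with a four-parameter sigmoid to yield IC50.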

In experiment [2] the test system is OPM-2 human multiple myeloma cell line. Description: Cell Viability Assay (OPM-2 10 FBS). It counts as cell-based. The note with it: OPM-2 cells, CellTiter-Glo. The method in brief:
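ATP-based luminescence (CellTiter-Glo) measured after a 16 h compound treatment of OPM-2 cells seeded at 3000 cells/well in 10% FBS medium. IC50 values derived by 4-parameter logistic fitting of serial dilutions.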

The mark [3] stands for this setting: cell free Mcl-1:Bim TR-FRET, recombinant human Mcl-1 (171-327).
The mark [4] stands for this setting: Homo sapiens, OPM-2, 16 h, 16 h.
The mark [5] stands for this setting: TR-FRET, 0.1 nM Mcl-1 (171-327), 0.05 nM biotin-Bim (51-76).
The mark [6] stands for this setting: Homo sapiens, OPM-2, 16 h, 16 h incubation.

T1 sequence (Q07820 171-327): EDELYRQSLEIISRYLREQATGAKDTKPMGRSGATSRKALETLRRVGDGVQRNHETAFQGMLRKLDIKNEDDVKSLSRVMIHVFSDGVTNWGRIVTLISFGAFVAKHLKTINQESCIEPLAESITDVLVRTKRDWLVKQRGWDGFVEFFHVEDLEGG

For the compound `CC[C@@H]1CC/C=C/[C@H](OC)[C@@H]2CC[C@H]2CN2C[C@@]3(CCCc4cc(Cl)ccc43)COc3cc(Cl)c(cc32)C(=O)NS1(=O)=O` [Example 688, (1S,3′R,6′R,7′S,8′E,12′R)-6,17′-dichloro-12′-ethyl-7′-methoxy-3,4-dihydro-2H,15′H-spiro[naphthalene-1,22′-[20]oxa[13]thia[1,14]diazatetracyclo[14.7.2.0^3,6.0^19,24]pentacosa [8,16,18,24]tetraen]-15′-one 13′,13′-dioxide], the IC50 worked out at 14.1 nM in experiment [1] (setting [3]) and 13600 nM in experiment [2] (setting [4]).

Take `C[C@H]1/C=C/[C@@H](O)[C@@H]2CC[C@H]2CN2C[C@@]3(CCCc4cc(Cl)ccc43)COc3ccc(cc32)C(=O)NS(=O)(=O)CC1(C)C` (single isomer, unassigned) [Example 494]: the half-inhibitory concentration (IC50) in experiment [1] (setting [3]) amounted to 8.81 nM; in experiment [2] (16 h) it was 3680 nM.

Turning to `COCCO[C@H]1/C=C/C[C@@H]2CC[C@H]2S(=O)(=O)NC(=O)c2ccc3c(c2)N(C[C@@H]2CC[C@H]21)C[C@@]1(CCCc2cc(Cl)ccc21)CO3` [Example 93, (1S,3′R,6′R,7′S,8′E,11′S,14′R)-6-chloro-7′-(2-methoxyethoxy)-3,4-dihydro-2H,17′H-spiro[naphthalene-1,24′-[22]oxa[15]thia[1,16]diazapentacyclo[16.7.2.0^3,6.0^11,14.0^21,26]heptacosa[8,18,20,26]tetraen]-17′-one 15′,15′-dioxide], the half-maximal inhibitory concentration (IC50) was determined as 0.494 nM in experiment [1] (setting [5]) and 402 nM in experiment [2] (setting [4]).

`CC[C@@H](O[C@H]1/C=C/CC[C@@H](C)S(=O)(=O)NC(=O)c2ccc3c(c2)N(C[C@@H]2CC[C@H]21)C[C@@]1(CCCc2cc(Cl)ccc21)CO3)C(=O)N(C)C` (single isomer, unassigned) [Example 421]: the half-inhibitory concentration (IC50) in experiment [1] (setting [5]) came to 0.686 nM; in experiment [2] (16 h), 674 nM.

With `C[C@@H]1[C@@H](C)C[C@H](CC(=O)N2CC(O)C2)/C=C/[C@@H]2CC[C@H]2CN2C[C@@]3(CCCc4cc(Cl)ccc43)COc3ccc(cc32)C(=O)NS1(=O)=O` [Example 1074, (1S,3′R,6′S,7′E,9′R,11′S,12′R)-6-chloro-9′-(2-(3-hydroxy-1-azetidinyl)-2-oxoethyl)-11′,12′-dimethyl-3,4-dihydro-2H,15′H-spiro[naphthalene-1,22′-[20]oxa[13]thia[1,14]diazatetracyclo[14.7.2.0^3,6.0^19,24]pentacosa [7,16,18,24]tetraen]-15′-one 13′,13′-dioxide], the IC50 amounted to 0.988 nM in experiment [1] (setting [5]) and 3850 nM in experiment [2] (setting [6]).

Consider `CN(C)C(=O)CN1CC/C=C/[C@H](O)[C@@H]2CC[C@H]2CN2C[C@@]3(CCCc4cc(Cl)ccc43)COc3ccc(cc32)C(=O)NS1(=O)=O` [Example 24, 2-((1S,3′R,6′R,7′S,8′E)-6-chloro-7′-hydroxy-13′,13′-dioxido-15′-oxo-3,4-dihydro-2H,12′H-spiro[naphthalene-1,22′-[20]oxa[13]thia[1,12,14]triazatetracyclo[14.7.2.0^3,6.0^19,24]pentacosa[8,16,18,24]tetraen]-12′-yl)-N,N-dimethylacetamide], for which the IC50 in experiment [1] (setting [5]) turned out to be 0.465 nM; in experiment [2] (setting [4]), 683 nM.

Take `COC[C@@H](O)C[C@@H]1[C@@H](C)C/C=C/[C@H](O)[C@@H]2CC[C@H]2CN2C[C@@]3(CCCc4cc(Cl)ccc43)COc3ccc(cc32)C(=O)NS1(=O)=O` (single isomer, unassigned) [Example 673]: the IC50 was 0.183 nM in experiment [1] (setting [3]) and 445 nM in experiment [2] (16 h).

Take `CC1C/C=C/[C@@H](O)[C@@H]2CC[C@H]2CN2C[C@@]3(CCCc4cc(Cl)ccc43)COc3ccc(cc32)C(=O)NS(=O)(=O)C1` (stereo in doubt) [Example 1088, (1S,3′R,6′R,7′R,8′E,11′S)-6-chloro-7′-hydroxy-11′-(methyl)-3,4-dihydro-2H,15′H-spiro [naphthalene-1,22′-[20]oxa[13]thia[1,14]diazatetracyclo[14.7.2.0^3,6.0^19,24]pentacosa [8,16,18,24]tetraen]-15′-one 13′,13′-dioxide]: the IC50 in experiment [1] (setting [5]) was 4.37 nM; in experiment [2] (setting [6]), 8980 nM.

With `CCN1[C@H](C)C/C=C/[C@H](O)[C@@H]2CC[C@H]2CN2C[C@@]3(CCCc4cc(Cl)ccc43)COc3ccc(cc32)C(=O)NS1(=O)=O` [Example 59, (1S,3′R,6′R,7′S,8′E,11R)-6-chloro-12′-ethyl-7′-hydroxy-11′-methyl-3,4-dihydro-2H,15′H-spiro[naphthalene-1,22′-[20]oxa[13]thia[1,12,14]triazatetracyclo[14.7.2.0^3,6.0^19,24]pentacosa[8,16,18,24]tetraen]-15′-one 13′,13′-dioxide], the IC50 in experiment [1] (setting [5]) came out at 4.27 nM; in experiment [2] (setting [4]), 7450 nM.

As for `C[C@@H]1CS(=O)(=O)NC(=O)c2ccc3c(c2)N(C[C@@H]2CC[C@H]2[C@@H]2C[C@H](CCO2)O1)C[C@@]1(CCCc2cc(Cl)ccc21)CO3` (single isomer, unassigned) [Example 921], the 50% inhibitory concentration (IC50) was determined as 2.09 nM in experiment [1] (setting [3]) and 9160 nM in experiment [2] (16 h).

In the case of `COCCO[C@H]1CC[C@@H](C)C[C@@H](COC)S(=O)(=O)NC(=O)c2ccc3c(c2)N(C[C@@H]2CC[C@H]21)C[C@@]1(CCCc2cc(Cl)ccc21)CO3` (single isomer, unassigned) [Example 1040], the IC50 came out at 1.04 nM in experiment [1] (setting [5]) and 2190 nM in experiment [2] (16 h incubation).

As to `O=C1NS(=O)(=O)[C@@H](CCS(=O)(=O)Cc2ccccc2)CC/C=C/[C@H](O)[C@@H]2CC[C@H]2CN2C[C@@]3(CCCc4cc(Cl)ccc43)COc3ccc1cc32` (single isomer, unassigned) [Example 163], the IC50 was determined as 5.07 nM in experiment [1] (setting [5]) and 18900 nM in experiment [2] (16 h).

For the compound `CC[C@@H]1CC/C=C\C(=O)[C@@H]2CC[C@H]2CN2C[C@@]3(CCCc4cc(Cl)ccc43)COc3ccc(cc32)C(=O)NS1(=O)=O` (single isomer, unassigned) [Example 885], the IC50 in experiment [1] (setting [3]) is 18.3 nM; in experiment [2] (setting [4]) it was 616 nM.

Regarding `C[C@@H]1[C@@H](C)C/C=C/[C@H](OCCC2CCN(C(=O)OC(C)(C)C)CC2)[C@@H]2CC[C@H]2CN2C[C@@]3(CCCc4cc(Cl)ccc43)COc3ccc(cc32)C(=O)NS1(=O)=O` [Example 737, tert-butyl 4-(2-(((1S,3′R,6′R,7′S,8′E,11′S,12′R)-6-chloro-11′,12′-dimethyl-13′,13′-dioxido-15′-oxo-3,4-dihydro-2H-spiro[naphthalene-1,22′-[20]oxa[13]thia[1,14]diazatetracyclo[14.7.2.0˜3,6˜.0˜19,24˜]pentacosa[8,16,18,24]tetraen]-7′-yl)oxy)ethyl)-1-piperidinecarboxylate], the results for the 50% inhibitory concentration (IC50) in experiment [1] (setting [3]) and in experiment [2] (setting [4]) were 15.1 nM and 3390 nM, respectively.

Regarding `O=C1NS(=O)(=O)[C@@H]2CCOC[C@H]2C/C=C/[C@H](O)[C@@H]2CC[C@H]2CN2C[C@@]3(CCCc4cc(Cl)ccc43)COc3ccc1cc32` (single isomer, unassigned) [Example 318], the IC50 in experiment [1] (setting [5]) was 0.273 nM; in experiment [2] (setting [4]), 430 nM.

As to `C[C@@H]1[C@@H](C)C/C=C/[C@H](OCCCN2CCOCC2)[C@@H]2CC[C@H]2CN2C[C@@]3(CCCc4cc(Cl)ccc43)COc3ccc(cc32)C(=O)NS1(=O)=O` [Example 721, (1S,3′R,6′R,7′S,8′E,11′S,12′R)-6-chloro-11′,12′-dimethyl-7′-(3-(4-morpholinyl)propoxy)-3,4-dihydro-2H,15′H-spiro[naphthalene-1,22′-[20]oxa[13]thia[1,14]diazatetracyclo[14.7.2.0^3,6.0^19,24]pentacosa [8,16,18,24]tetraen]-15′-one-13′, 13′-dioxide], the IC50 worked out at 0.539 nM in experiment [1] (setting [3]) and 73.5 nM in experiment [2] (setting [4]).

Consider `COC(C)COC1C=CCC(C)C(C)S(=O)(=O)NC(=O)c2ccc3c(c2)N(CC2CCC21)CC1(CCCc2cc(Cl)ccc21)CO3` (mixture of isomers) [Example 519], for which the figures for the concentration for half-maximal inhibition (IC50) in experiment [1] (setting [3]) and in experiment [2] (16 h) were 1.44 nM and 339 nM, respectively.

In the case of `CC12CC=CC(O)C3CCC3CN3CC4(CCCc5cc(Cl)ccc54)COc4ccc(cc43)C(=O)NS(=O)(=O)C1CCC2` (single isomer, unassigned) [Example 133], the IC50 came out at 2 nM in experiment [1] (setting [5]) and 2750 nM in experiment [2] (setting [4]).

For the compound `CONC(=O)CO[C@H]1/C=C/C[C@H](C)[C@@H](C)S(=O)(=O)NC(=O)c2ccc3c(c2)N(C[C@@H]2CC[C@H]21)C[C@@]1(CCCc2cc(Cl)ccc21)CO3` [Example 301, 2-(((1S,3′R,6′R,7′S,8′E,11′S,12′R)-6-chloro-11′,12′-dimethyl-13′,13′-dioxido-15′-oxo-3,4-dihydro-2H-spiro[naphthalene-1,22′-[20]oxa[13]thia[1,14]diazatetracyclo[14.7.2.0^3,6.0^19,24]pentacosa [8,16,18,24]tetraen]-7′-yl)oxy)-N-methoxyacetamide], the results for the concentration for half-maximal inhibition (IC50) in experiment [1] (setting [5]) and in experiment [2] (setting [4]) were 0.245 nM and 844 nM, respectively.

For the compound `COCCO[C@H]1/C=C/C[C@H](C)N(Cc2ccc(OC)cc2)S(=O)(=O)NC(=O)c2ccc3c(c2)N(C[C@@H]2CC[C@H]21)C[C@@]1(CCCc2cc(Cl)ccc21)CO3` [Example 82, (1S,3′R,6′R,7′S,8′E,11′S)-6-chloro-12′-(4-methoxybenzyl)-7′-(2-methoxyethoxy)-11′-methyl-3,4-dihydro-2H,15′H-spiro[naphthalene-1,22′-[20]oxa[13]thia[1,12,14]triazatetracyclo[14.7.2.0^3,6.0^19,24]pentacosa[8,16,18,24]tetraen]-15′-one 13′,13′-dioxide], the IC50 was 7.8 nM in experiment [1] (setting [5]) and 2920 nM in experiment [2] (setting [4]).
